Where “and” joins values, the source holds several entries; their conditions need not be identical. Equal values may be shown once.
Experiments:
[1] = Reduction by glutathione (GSH), UV–vis; assay type: physicochemical; settings: pH 7.4, glove box
Source text: The reduction of complexes 1, 2, 4 and 5 by glutathione (GSH), one of the major cellular reductants, was investigated at pH 7.4 by recording UV–vis spectra in a glove box.

[2] = system: NCI 60 human tumor cell line panel; assay: NCI-60 five-dose screen, average across panel; assay type: cell-based; settings: five-dose 0.01–100 μM
Description: (§3) The NCI-60 SRB assay was performed as described previously.[76] GI50 values (the concentration of the metal complex causing 50% growth inhibition), TGI value (the concentration of the complex causing 0% cell growth), and LC50 (the concentration of the complex causing 50% cell death) were interpolated from dose–response curves that were plots of percentage cell growth versus concentration of test compounds.

HL-60(TB) = assay: NCI-60 five-dose screen; assay type: cell-based, human; settings: Leukemia
MOLT-4 = assay: NCI-60 five-dose screen; assay type: cell-based, human; settings: Leukemia
Description: as §3

RPMI-8226 = assay: NCI-60 five-dose screen; assay type: cell-based, human; settings: Leukemia
Description: as §3

SR = assay: NCI-60 five-dose screen; assay type: cell-based, human; settings: Leukemia
Description: as §3

A549/ATCC = assay: NCI-60 five-dose screen; assay type: cell-based, human; settings: Non-Small Cell Lung Cancer
Description: as §3

EKVX = assay: NCI-60 five-dose screen; assay type: cell-based, human; settings: Non-Small Cell Lung Cancer
Description: as §3

HOP-62 = assay: NCI-60 five-dose screen; assay type: cell-based, human; settings: Non-Small Cell Lung Cancer
Description: as §3

HOP-92 = assay: NCI-60 five-dose screen; assay type: cell-based, human; settings: Non-Small Cell Lung Cancer
Description: as §3

NCI-H460 = assay: NCI-60 five-dose screen; assay type: cell-based, human; settings: Non-Small Cell Lung Cancer
Description: as §3

HCC-2998 = assay: NCI-60 five-dose screen; assay type: cell-based, human; settings: Colon cancer
Description: as §3

HCT-116 = assay: NCI-60 five-dose screen; assay type: cell-based, human; settings: Colon cancer
Description: as §3

HCT-15 = assay: NCI-60 five-dose screen; assay type: cell-based, human; settings: Colon cancer
Description: as §3

HT29 = assay: NCI-60 five-dose screen; assay type: cell-based, human; settings: Colon cancer
Description: as §3

KM12 = assay: NCI-60 five-dose screen; assay type: cell-based, human; settings: Colon cancer
Description: as §3

SW-620 = assay: NCI-60 five-dose screen; assay type: cell-based, human; settings: Colon cancer
Source text: (§4) GI50 values (the concentration of the metal complex causing 50% growth inhibition), TGI value (the concentration of the complex causing 0% cell growth), and LC50 (the concentration of the complex causing 50% cell death) were interpolated from dose–response curves that were plots of percentage cell growth versus concentration of test compounds.

SF-295 = assay: NCI-60 five-dose screen; assay type: cell-based, human; settings: CNS cancer
Source text: as §4

SF-539 = assay: NCI-60 five-dose screen; assay type: cell-based, human; settings: CNS cancer
Source text: as §4

SNB-19 = assay: NCI-60 five-dose screen; assay type: cell-based, human; settings: CNS cancer
Source text: as §4

U251 = assay: NCI-60 five-dose screen; assay type: cell-based, human; settings: CNS cancer
Description: as §3

LOX IMVI = settings: Melanoma
Source text: (§1) The proligands HL^1–HL^3 and their corresponding metal complexes 1–8 prepared in this study were subjected to evaluation of their anticancer potential, including selectivity towards specific types of cancer: leukemia, non-small cell lung (NSCLC), colon, central nervous system (CNS), melanoma, ovarian, renal, prostate and breast cancers, by the National Cancer Institute's Developmental Therapeutics Program. This evaluation involved the utilization of the NCI 60 human tumor cell line panel.[57] […] The GI50 data in μM are collected in Table 5.
(§2) The NCI-60 SRB assay was performed as described previously.[76]

M14 = settings: Melanoma
Source text: as §1, §2

MALME-3M = settings: Melanoma
Source text: as §1, §2

MDA-MB-435 = settings: Melanoma
Source text: as §1, §2

SK-MEL-28 = settings: Melanoma
Source text: as §1, §2

SK-MEL-2 = settings: Melanoma
Source text: as §1, §2

SK-MEL-5 = settings: Melanoma
Source text: as §1, §2

UACC-257 = settings: Melanoma
Source text: as §1, §2

UACC-62 = settings: Melanoma
Source text: as §1, §2

IGROV1 = assay: NCI-60 five-dose screen; assay type: cell-based, human; settings: Ovarian cancer
Description: as §3

OVCAR-3 = assay: NCI-60 five-dose screen; assay type: cell-based, human; settings: Ovarian cancer
Description: as §3

OVCAR-4 = assay: NCI-60 five-dose screen; assay type: cell-based, human; settings: Ovarian cancer
Description: as §3

SK-OV-3 = assay: NCI-60 five-dose screen; assay type: cell-based, human; settings: Ovarian cancer
Description: as §3

786-0 = assay: NCI-60 five-dose screen; assay type: cell-based, human; settings: Renal cancer
Description: as §3

A498 = assay: NCI-60 five-dose screen; assay type: cell-based, human; settings: Renal cancer
Description: as §3

CAKI-1 = assay: NCI-60 five-dose screen; assay type: cell-based, human; settings: Renal cancer
Description: as §3

SN12C = assay: NCI-60 five-dose screen; assay type: cell-based, human; settings: Renal cancer
Description: as §3

TK-10 = assay: NCI-60 five-dose screen; assay type: cell-based, human; settings: Renal cancer
Source text: as §4

UO-31 = assay: NCI-60 five-dose screen; assay type: cell-based, human; settings: Renal cancer
Source text: as §4

MCF7 = assay: NCI-60 five-dose screen; assay type: cell-based, human; settings: Breast cancer
Source text: as §4

MDA-MB-231/ATCC = assay: NCI-60 five-dose screen; assay type: cell-based, human; settings: Breast cancer
Description: as §3

HS 578T = assay: NCI-60 five-dose screen; assay type: cell-based, human; settings: Breast cancer
Description: as §3

BT-549 = assay: NCI-60 five-dose screen; assay type: cell-based, human; settings: Breast cancer
Description: as §3

A549 cells = assay: BrdU incorporation assay; settings: 10 μM, 24 h
Description: To test directly the antiproliferative activity of the proligands and of their Co(III) and Fe(III) complexes on A549 cancer cells, non-toxic concentrations of the compounds were applied to the cells, then the 5-bromo-2′-deoxy-uridine (BrdU) incorporation assay was performed (Fig. 10).
The effect of proligands HL^1–HL^3 and of metal complexes 1, 2 and 4, 5 on the proliferation of A549 cells was investigated by the BrdU assay (5-bromo-2′-deoxyuridine Labeling and Detection Kit I, Roche, Cat. No. 11 296 736 001). For this, 3 × 10^4 cells were seeded onto glass coverslips that were placed on 24-well plates, and the cells were left to grow overnight. Next day, when the cells reached about 50% confluence, the samples were treated with 10 μM of each compound or with an equivalent volume of DMSO for 24 h. At this point, BrdU labeling solution was added in a 1 : 1000 dilution, and the incubation continued for 30 min. Then the cells were fixed using 70% ethanol in 50 mM glycine (pH 2.0), and immunofluorescence of adherent cells was measured following the manufacturer's instructions. BrdU incorporation was visualized using an Olympus FV10i confocal microscope.

[3] = system: A549 human lung adenocarcinoma cells; assay: MTT viability assay, 24 h; settings: read-out: IC50 values A549; A549 cells, 24 h, MTT assay
Description: (§5) We wanted to compare the cytotoxicity of proligands HL^1–HL^3 and of their Co(III) and Fe(III) complexes 1, 2 and 4, 5 on cell lines originating from the same tissue, so human lung carcinoma A549 cells and lung fibroblast MRC-5 cells were subjected to 24 h treatments.
(§6) The biological effects of selected metal complexes (1, 2, 4 and 5) and of their proligands (HL^1, HL^2 and HL^3) were tested more extensively on A549 human lung adenocarcinoma cells and on MRC-5 human lung fibroblast cells. Both cell lines were obtained from ATCC and maintained in DMEM cell culture media containing 1.0 g L^−1 glucose (Biosera, Nuaille, France) complemented with 10% fetal bovine serum (FBS), 2 mM L-glutamine, 0.01% streptomycin and 0.005% penicillin and were cultured under standard conditions in a 37 °C incubator at 5% CO2 and 95% humidity. The viability of A549 and of MRC-5 fibroblast cells upon exposure to the selected metal–ligand complexes and ligands were evaluated by the MTT assay. For this, 10 000 cells per well were seeded into 96-well plates and left to grow. On the next day the cells were exposed to 0, 5, 10, 20, 40 or 80 μM of each compound or to an equivalent volume of DMSO for 24 h. After the treatments, cells were washed with PBS and then were incubated with 0.5 mg mL^−1 MTT reagent (Sigma-Aldrich, St Louis, Missouri, USA) for 1 h at 37 °C. Finally, 100 μL of DMSO (Molar Chemicals, Halásztelek, Hungary) was added to each well, and the absorbance of samples was measured at 570 nm using a Synergy HTX plate reader (BioTek, Winooski, Vermont, USA). The viability measurements were repeated three times using 3 independent biological replicates.

[4] = system: MRC-5 human lung fibroblast cells; assay: MTT viability assay, 24 h; settings: read-out: IC50 values MRC-5; MRC-5 fibroblasts, 24 h, MTT assay
Description: as §5, §6

CC(=NN=C([S-])Nc1cc(C)c(O)c(C)c1)c1cccc(CN2CCOCC2)n1.CC(=NN=C([S-])Nc1cc(C)c(O)c(C)c1)c1cccc(CN2CCOCC2)n1.O=[N+]([O-])[O-].[Fe+3] [Complex 4, [Fe^III(L^2)2]NO3]
reduction by glutathione (GSH) [1]: reduction by GSH | average TGI across all cell lines in the panel [2]: 18400 nM | GI50 ([2]; read-out: average GI50 across all cell lines in the panel): 2920 nM | LC50 ([2]; read-out: average LC50 across all cell lines in the panel): 51200 nM | GI50 (HL-60(TB)): 1410 nM | GI50 (MOLT-4): 2720 nM | GI50 (RPMI-8226): 1810 nM | GI50 (SR): 2430 nM | GI50 (A549/ATCC): 2440 nM | GI50 (EKVX): 2250 nM | GI50 (HOP-62): 2970 nM | GI50 (HOP-92): 2540 nM | GI50 (NCI-H460): 1980 nM | GI50 (HCC-2998): 2730 nM | GI50 (HCT-116): 2300 nM | GI50 (HCT-15): 2360 nM | GI50 (HT29): 7120 nM | GI50 (KM12): 2340 nM | GI50 (SW-620): 2300 nM | GI50 (SF-295): 1940 nM | GI50 (SF-539): 1960 nM | GI50 (SNB-19): 2760 nM | GI50 (U251): 1970 nM | GI50 (LOX IMVI): 2340 nM | GI50 (M14): 2370 nM | GI50 (MALME-3M): 1930 nM | GI50 (MDA-MB-435): 2310 nM | GI50 (SK-MEL-28): 2380 nM | GI50 (SK-MEL-2): 1670 nM | GI50 (SK-MEL-5): 1100 nM | GI50 (UACC-257): 4340 nM | GI50 (UACC-62): 1860 nM | GI50 (IGROV1): 3270 nM | GI50 (OVCAR-3): 1990 nM | GI50 (OVCAR-4): 3250 nM | GI50 (SK-OV-3): 2700 nM | GI50 (786-0): 9560 nM | GI50 (A498): 19800 nM | GI50 (CAKI-1): 3740 nM | GI50 (SN12C): 2530 nM | GI50 (TK-10): 4130 nM | GI50 (UO-31): 1660 nM | GI50 (MCF7): 1950 nM | GI50 (MDA-MB-231/ATCC): 2440 nM | GI50 (HS 578T): 1960 nM | GI50 (BT-549): 2190 nM | A549 cell proliferation (BrdU incorporation) (A549 cells): significantly less BrdU incorporation | IC50 [3]: 14000 to 17000 nM and 17000 nM | IC50 [4]: > 80000 nM

— publication PMC11264232, “Are the metal identity and stoichiometry of metal complexes important for colchicine site binding and inhibition of tubulin polymerization?” (Dalton Transactions (Cambridge, England : 2003), 2024)
